Data reported in patent US8129370B2, “Use of oxicam compounds” (Dritte PatentPortfolio Beteiligungsgesellschaft MBH & Co. KG, priority 2003, dated 2012).

Assays:
[1] = test system: amyloid precursor protein (APP); conditions: cited from earlier work
[2] = test system: Aβ42; conditions: WO 01/78721 A1; cited from earlier work
[3] = biological target: T1, COX-2 (Homo sapiens, UniProt P35354); assay: inhibition of eicosanoid formation in LPS-stimulated Mono Mac 6-cells (COX-2); format: cell-based; conditions: FIG. 7
T1 construct: LPS-stimulated Mono Mac 6-cells (COX-2); endogenous in cells; host or cells: LPS-stimulated Mono Mac 6 cells
T1 sequence (P35354 18-604): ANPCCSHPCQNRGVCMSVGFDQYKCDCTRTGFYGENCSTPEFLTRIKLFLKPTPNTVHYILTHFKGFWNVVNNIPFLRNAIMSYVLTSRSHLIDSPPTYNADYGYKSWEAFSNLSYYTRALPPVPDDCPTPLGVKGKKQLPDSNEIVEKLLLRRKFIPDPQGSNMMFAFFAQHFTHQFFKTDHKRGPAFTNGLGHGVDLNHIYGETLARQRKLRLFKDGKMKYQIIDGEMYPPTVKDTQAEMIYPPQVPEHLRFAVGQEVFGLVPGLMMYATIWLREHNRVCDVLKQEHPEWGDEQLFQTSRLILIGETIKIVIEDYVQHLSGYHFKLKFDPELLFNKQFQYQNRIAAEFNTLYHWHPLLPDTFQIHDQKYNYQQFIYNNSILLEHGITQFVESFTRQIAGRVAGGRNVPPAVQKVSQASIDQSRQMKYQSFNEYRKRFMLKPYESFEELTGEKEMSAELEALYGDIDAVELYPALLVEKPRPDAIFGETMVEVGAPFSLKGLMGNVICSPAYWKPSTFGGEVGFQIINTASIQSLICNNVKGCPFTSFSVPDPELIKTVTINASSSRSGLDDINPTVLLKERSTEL

[4] = Pruss et al. 1989; cited from earlier work
[5] = plasma half-life; conditions: in vivo
[6] = biological target: T1, COX-2; assay: inhibition of COX-2 (isozyme of the eicosanoid metabolism); format: biochemical
[7] = biological target: T2, COX-1 (Homo sapiens, UniProt P23219); assay: inhibition of COX-1 (isozyme of the eicosanoid metabolism); format: biochemical; set-up: eicosanoid formation in HEL cells (COX-1); endogenous in cells; host or cells: HEL cells
[8] = biological target: T2, COX-1; assay: inhibition of eicosanoid formation in HEL cells (COX-1); format: cell-based; set-up: eicosanoid formation in HEL cells (COX-1); endogenous in cells; host or cells: HEL cells; conditions: FIG. 7
[9] = cited from earlier work

T2 sequence (P23219 24-599): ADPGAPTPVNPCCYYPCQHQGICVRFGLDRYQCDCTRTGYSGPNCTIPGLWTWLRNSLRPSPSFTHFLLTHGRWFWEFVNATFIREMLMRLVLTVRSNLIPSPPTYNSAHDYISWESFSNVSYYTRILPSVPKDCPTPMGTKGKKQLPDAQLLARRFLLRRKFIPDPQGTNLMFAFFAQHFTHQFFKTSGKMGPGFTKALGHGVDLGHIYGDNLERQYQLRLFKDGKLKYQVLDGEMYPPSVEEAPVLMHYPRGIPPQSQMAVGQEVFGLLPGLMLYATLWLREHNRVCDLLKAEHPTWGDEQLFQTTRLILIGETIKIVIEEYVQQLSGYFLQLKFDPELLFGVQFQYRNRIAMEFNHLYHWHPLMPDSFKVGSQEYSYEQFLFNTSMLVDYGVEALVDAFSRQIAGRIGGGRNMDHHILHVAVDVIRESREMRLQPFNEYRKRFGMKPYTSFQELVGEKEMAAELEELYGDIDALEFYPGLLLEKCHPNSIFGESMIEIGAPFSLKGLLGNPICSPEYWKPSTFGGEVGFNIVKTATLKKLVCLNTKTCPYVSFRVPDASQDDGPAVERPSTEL

CC(C)Cc1ccc(C(C)C(=O)O)cc1 (stereo not shown) [Ibuprofen]
portion of the amyloid β-42 peptide [1]: lowered
portion of the non-amyloidogenic soluble APP [1]: increased

Cc1cc(NC(=O)C2=C(O)c3ccccc3S(=O)(=O)N2C)no1 [isoxicam]
influence on the expression of Aβ42 [2]: do not influence the expression of Aβ42 and even increase the expression thereof, respectively

CN1C(C(=O)Nc2ccccn2)=C(O)c2sc(Cl)cc2S1(=O)=O [lornoxicam]
inhibition of the eicosanoid formation [3]: inhibition
crossing the blood-brain barrier [4]: not capable of crossing the blood-brain barrier
plasma half-life [5]: short
inhibition of COX-2 [6]: inhibits
inhibition of COX-1 [7]: inhibits
inhibition of the eicosanoid formation [8]: inhibition
severe undesired events reported ([9]; in one million of prescriptions): less than 10
gastro-intestinal and other tolerance ([9]; in vivo): good
side-effects found during observation of usage ([9]; in vivo): below 0.05%

CN1C(C(=O)Nc2ccccn2)=C(O)c2ccccc2S1(=O)=O [peroxicam]
influence on the expression of Aβ42 [2]: do not influence the expression of Aβ42 and even increase the expression thereof, respectively
